Reference: patent US20250144067A1, “PERSONALIZED STARVATION THERAPY FOR CANCER” (Faeth Therapeutics, Inc., priority 2021, published 2025)
Counter-ions that a name gives are not always drawn.

Legend:
H292 cells [1] = assay: Drug validation, four media conditions; type: cell-based, human; conditions: cholesterol-free medium+simvastatin compared to the other media conditions
Procedure: (§1) A series of experiments were designed to assess the effect of cholesterol depletion and statin treatment on the anti-cancer effect of drugs identified in the FDA drug screens. Cancer cells were grown in media containing cholesterol and cholesterol-free media in the presence or absence of simvastatin. The effect of the drug identified in the FDA drug screens on cancer cell growth was measured.
(§2) […]. Medium 1 was ‘complete medium’ containing all essential nutrients, including cholesterol. Medium 2 was cholesterol-free medium. Medium 3 was cholesterol-free medium supplemented with simvastatin 40 nM. Medium 4 was ‘complete medium’ containing all essential nutrients, including cholesterol, supplemented with simvastatin at the IC30 concentration for each cell line.
(§3) On Day 5, cell growth was measured by absorbance or fluorescence. For absorbance growth measurements, spent media was discarded, and wells were stained with a crystal violet staining solution, washed, and dried. 100 μL of 10% acetic acid was added to each well to release the crystal violet taken up by the cells. Plates were read using a Biotek Powerwave plate reader to determine the absorbance of the crystal violet released as an indicator of cell growth at a wavelength of 595 nm. For fluorescence growth measurements, 100 μL of a resazurin solution was added to each well and the plate incubated at 37° C. for four hours. Plates were read using a Biotek Powerwave plate reader to determine the fluorescence of reosurfin as an indicator of cell growth at a wavelength of 590 nm.
(§4) Growth curves showing absorbance of crystal violet at 595 nm or fluorescene of reosurfin at 590 nm were plotted from test wells against the logarithmic concentration of the validation drug. FIG. 9A-9C show growth of cancer cell lines in the four media conditions subjected to increasing doses of neticonazole. FIG. 10A-10D show growth of cancer cell lines in the four media conditions subjected to increasing doses of cepharanthine. FIG. 11A-11B show growth of cancer cell lines in the four media conditions subjected to increasing doses of alverine citrate. FIG. 12A-12B show growth of cancer cell lines in the four media conditions subjected to increasing doses of berbamine. FIG. 13A-13C show growth of cancer cell lines in the four media conditions subjected to increasing doses of pitolisant. FIG. 14A-14G show growth of cancer cell lines in the four media conditions subjected to increasing doses of avapritinib. FIG. 15A-15D show growth of cancer cell lines in the four media conditions subjected to increasing doses of toremifene. FIG. 16A-16C show growth of cancer cell lines in the four media conditions subjected to increasing doses of isavuconazole.

SW480 cells = assay: Drug validation, four media conditions; type: cell-based, human
Procedure: as §1, §2, §3, §4

[2] = system: NCI-H292 lung cancer cells; assay: FDA drug screening, complete media vs cholesterol-free media without statin (TABLE 1); type: cell-based, human; conditions: for Difference: about 0 neutral
[3] = system: NCI-H292 lung cancer cells; assay: FDA drug screening, complete media vs cholesterol-free media with simvastatin (TABLE 2); type: cell-based, human; conditions: for Cholesterol-free media + simvastatin (0.04 μM) / Complete Media: NCI-H292 cells, FDA drug library screen; for Cholesterol-free media + simvastatin (0.04 μM): cholesterol-free media with simvastatin 0.04 μM; for Difference: complete media minus cholesterol-free media + simvastatin, >0 enhanced anti-cancer activity, about 0 neutral, <0 antagonist
H292 cells [4] = assay: Drug validation in H292 cells, three media conditions; type: cell-based, human; conditions: cholesterol-free medium + simvastatin 40 nM vs complete and cholesterol-free medium
Procedure: as §1
On Day 1, cells were seeded at a density of around 7500 cells/well in a Corning 96-well flat bottom culture plate in complete media containing 10% FBS.
On Day 5, spent media was discarded, and wells were stained with a crystal violet staining solution, washed and dried. 100 μL of 10% acetic acid was added to each well to release the crystal violet taken up by the cells. Plates were read using a Biotek Powerwave plate reader to determine the absorbance of the crystal violet released as an indicator of cell growth at a wavelength of 595 nm.
Growth curves showing absorbance of crystal violet at 595 nm were plotted from test wells against the logarithmic concentration of the validation drug. FIG. 7A-7C show growth of cancer cell lines in the three media conditions subjected to increasing doses of isavuconazole (FIG. 7A), pitolisant (FIG. 7B), or toremifene (FIG. 7C) from the FDA screen under validation. For each of the drugs being validated, there is a strong ‘left-shift’ in the dose response curve for cells are grown in the cholesterol-free medium+simvastatin.

PC9 cells = assay: Drug validation, four media conditions; type: cell-based, human; conditions: cholesterol-free medium+simvastatin compared to the other media conditions
Procedure: as §1, §2, §3, §4

PSN1 cells = assay: Drug validation, four media conditions; type: cell-based, human
Procedure: as §1, §2, §3, §4

HCC827 cells = assay: Drug validation, four media conditions; type: cell-based, human; conditions: cholesterol-free and cholesterol-free+simvastatin media conditions
Procedure: as §1, §2, §3, §4

[5] = system: NCI-H292 mucoepidermoid lung cancer tumour; assay: Anti-tumour activity with low cholesterol diet in NCI-H292 tumour bearing mice; type: in vivo, BALB/c nude mice; conditions: Low Chol Diet + atorvastatin 30 mg/kg daily oral gavage vs Low Chol Diet + vehicle
Description: (§5) A series of in vivo experiments were designed to assess the effect of cholesterol depletion on cancer cell growth. The added role of statin treatment and additional therapeutic agents was studied by dosing mice and assessing tumor growth over a defined time period.
Immunodeficient BALB/c nude mice were subcutaneously injected with human mucoepidermoid lung cancer NCI-H292 cells to initiate tumor development and randomly assigned into one of three experimental groups (n=6 per group): normal cholesterol diet “Normal Chol Diet” containing 0.2% dietary cholesterol without atorvastatin; low cholesterol diet “Low Chol Diet” containing less than 0.05% dietary cholesterol without atorvastatin; or Low Chol Diet treated with atorvastatin at 30 mg/kg by oral gavage. Once the tumor volume reached ˜150 mm^3, experimental diets were commenced. Atorvastatin or vehicle treatment was initiated four days after the diet change and continued daily until the tumor volume exceeded 2000 mm^3 or the time end-point of three weeks after diet commencement was reached. Throughout the course of the study, tumor volume was measured twice per week.

SW480 colorectal tumour = assay: Anti-tumour activity with low cholesterol diet in SW480 tumour bearing mice; type: in vivo, M-NSG mice
Description: as §5
Immunodeficient M-NSG (NOD-Prkdc^scid Il2rgem1Smoc) mice were subcutaneously injected with human colorectal cancer SW480 cells and matrigel to initiate tumor development and randomly assigned into one of four experimental groups (n=6 per group): normal cholesterol diet “Normal Chol Diet” containing 0.2% dietary cholesterol and vehicle, low cholesterol diet “Low Chol Diet” containing less than 0.05% dietary cholesterol and vehicle, Low Chol Diet treated with atorvastatin at 15 mg/kg, or Low Chol Diet treated with toremifene at 2 mg/kg. Once the tumor volume reached ˜150 mm^3, experimental diets were commenced. Atorvastatin, vehicle, or toremifene treatment by oral gavage was initiated four days after the diet change and continued daily until the tumor volume exceeded 2000 mm^3 or the time end-point of three weeks after treatment initiation was reached. Throughout the course of the study, tumor volume was measured twice per week.

cancer cell lines = assay: Drug validation in multiple cancer cell lines, four media conditions; type: cell-based, human
Procedure: as §1
[…]. Medium 1 was ‘complete medium’ containing all essential nutrients, including cholesterol. Medium 2 was cholesterol-free medium. Medium 3 was cholesterol-free medium supplemented with simvastatin 40 nM. […]
as §3, with “and dried. […] Plates were” for “and dried. 100 μL of 10% acetic acid was added to each well to release the crystal violet taken up by the cells. Plates were”, “590 nm. […]” for “590 nm.”

PC9 lung cancer tumors = assay: Anti-tumour activity with low cholesterol diet in PC9 bearing mice; type: in vivo, C.B-17 SCID mice; conditions: Low Chol Diet + toremifene 2 mg/kg with simvastatin 10 mg/kg, daily oral gavage, compared to simvastatin 20 mg/kg
Description: as §5
Immunodeficient C.B-17 SCID (C.B-Igh-1^b/IcrTac-Prkdc^scid) mice were subcutaneously injected with human lung cancer PC9 cells to initiate tumor development and randomly assigned into one of three experimental groups (n=6 per group): “Low Chol Diet” containing less than 0.05% dietary cholesterol and vehicle, Low Chol Diet and simvastatin 20 mg/kg, and Low Chol Diet and simvastatin 10 mg/kg in combination with toremifene 2 mg/kg. Once the tumor volume reached ˜200 mm^3, treatment was commenced with vehicle, simvastatin, and toremifene administered daily by oral gavage. Treatment continued for 28 days or until the tumor volume exceeded 2000 mm^3. Throughout the course of the study, tumor volume was measured twice per week.

PATU8901 cells = assay: Drug validation, four media conditions; type: cell-based, human; conditions: cholesterol-free media with simvastatin
Procedure: as §1, §2, §3, §4

[6] = cholesterol-free medium+simvastatin compared to the other media conditions
[7] = cholesterol-free and cholesterol-free+simvastatin media conditions

CCN(CCCc1ccccc1)CCCc1ccccc1 [alverine citrate]
anti-proliferative effect (dose-response curve shift) (H292 cells [1]): enhanced | anti-proliferative effect (dose-response curve shift) (SW480 cells; [6]): enhanced

C[C@@H](c1nc(-c2ccc(C#N)cc2)cs1)[C@](O)(Cn1cncn1)c1cc(F)ccc1F [isavuconazole, reference compound]
Difference ([2]; Complete minus Cholesterol-free, greater than 0 enhanced anti-cancer activity, below 0 antagonists): −0.83 | Cholesterol-free ([2]; NCI-H292 cells in cholesterol-free media without statin): 1.746 | Complete ([2]; NCI-H292 cells in complete media): 0.9126 | Cholesterol-free media + simvastatin (0.04 μM) [3]: 0.5246 | Complete Media [3]: 0.9256 | Difference [3]: 0.40 | anti-proliferative effect of the drug (dose response curve shift) (H292 cells [4]): strongly enhanced | anti-proliferative effect (dose-response curve shift) (H292 cells [1]): strong left-shift | anti-proliferative effect (dose-response curve shift) (PC9 cells): strong left-shift | basal viability of treated cells (PSN1 cells; cholesterol-free medium+simvastatin relative to the other three media conditions): decreased basal viability

Clc1ccc(CCCOCCCN2CCCCC2)cc1 [pitolisant]
anti-proliferative effect of the drug (dose response curve shift) (H292 cells [4]): strongly enhanced | activity (dose-response curve shift) with lack of cholesterol (HCC827 cells): enhanced | activity (dose-response curve shift) with lack of cholesterol (PSN1 cells; [7]): enhanced | activity (dose-response curve shift) with lack of cholesterol (SW480 cells; [7]): enhanced

CC(C)c1c(C(=O)Nc2ccccc2)c(-c2ccccc2)c(-c2ccc(F)cc2)n1CC[C@@H](O)C[C@@H](O)CC(=O)O [atorvastatin, reference compound]
Difference ([2]; Complete minus Cholesterol-free, >0 enhanced anti-cancer activity, <0 antagonist): 0.03 | Cholesterol-free ([2]; NCI-H292 cells, cholesterol-free media without statin, FDA drug library screen): 0.8356 | Complete ([2]; NCI-H292 cells, complete media, FDA drug library screen): 0.8623 | Cholesterol-free media + simvastatin (0.04 μM) ([3]; listed as Atorvastatin): 0.6169 | Complete Media ([3]; listed as Atorvastatin): 0.8658 | Difference ([3]; listed as Atorvastatin): 0.25 | tumor growth suppression [5]: enhanced the tumor growth suppression | tumor growth suppression (SW480 colorectal tumour; Low Chol Diet + atorvastatin 15 mg/kg daily oral gavage vs Low Chol Diet + vehicle): enhanced

CN(C)CCOc1ccc(/C(=C(/CCCl)c2ccccc2)c2ccccc2)cc1 [toremifene]
anti-proliferative effect of the drug (dose response curve shift) (H292 cells [4]): strongly enhanced | anti-proliferative activity (dose-response curve shift) (cancer cell lines; cholesterol-free+simvastatin medium compared to the other three media conditions): strong left-shift | tumor growth suppression, rank among the four conditions (SW480 colorectal tumour; Low Chol Diet + toremifene 2 mg/kg): highest | tumor growth suppression (SW480 colorectal tumour; Low Chol Diet + toremifene 2 mg/kg daily oral gavage vs Low Chol Diet + vehicle): enhanced | tumor growth suppression (PC9 lung cancer tumors): enhanced the tumor growth suppression

Cn1cc(-c2cc3c(N4CCN(c5ncc([C@@](C)(N)c6ccc(F)cc6)cn5)CC4)ncnn3c2)cn1 [avapritinib, reference compound]
Cholesterol-free ([2]; NCI-H292 cells, cholesterol-free media without statin): 0.9337 | Complete ([2]; NCI-H292 cells, complete media): 0.6002 | Difference ([2]; complete vs cholesterol-free media, greater than 0 enhanced anti-cancer activity, below 0 antagonists): −0.33 | Cholesterol-free media + simvastatin (0.04 μM) [3]: 0.4436 | Complete Media [3]: 0.749 | Difference [3]: 0.31 | anti-proliferative effect (dose-response curve shift) with lack of cholesterol (cancer cell lines; cholesterol-free media compared to complete media): enhanced | anti-proliferative effect (dose-response curve shift) (H292 cells [1]): strong left-shift | anti-proliferative effect (dose-response curve shift) (PATU8901 cells): strong left-shift | anti-proliferative effect (dose-response curve shift) (PSN1 cells; [6]): strong left-shift
